# In patent US20060142621A1, “Bismuth dithiocarbamate compounds and uses thereof” (priority 2003, published 2006):
# Assays:
# BALB/c mice = assay: Maximum Tolerated Dose (MTD) / lethal dose determination in Balb/C mouse model; type: in vivo
# Experimental: The MTD of Bi(S2CNEt2)3 was determined in the following manner. Male and female BALB/c mice obtained from the Laboratory Animal Centre, (National University of Singapore), were used for the study. The mice used were about 4-5 weeks old with a mean body weight of 20±2 g. The 5 mice per cage were kept at room temperature and under standard light conditions. They received standard mouse chow and water. […] The mice in the control group were administered with DMSO only. […] An initial concentration of 20 mg Bi/kg was used for a small sampling population of two mice, one of each gender. If both mice died, the complex concentration was decreased, and the experiment was repeated for another two mice. If one of the mice died but the other survived, the experiment was repeated for a larger sampling population of ten mice, five of each gender, for the same complex concentration. The observation period lasted 14 days. The objective of the experiment was to plot a graph of percent of live mice (number of survivors/ten×100%) against compound dosage (in mg Bi/kg). This procedure enabled the determination of the Maximum Tolerated Dose (at MTD 90% survival of mice).
# [1] = system: OVCAR human ovarian cancer; assay: in vivo anti-tumour activity, OVCAR xenograft in nude Balb/C mice; design: species or system mouse; settings: nude Balb/C mice with OVCAR, 0.14 mg Bi/kg
# Experimental: Female BALB/C-nude mice, obtained from the Animal Resources Centre in Queensland, Australia were used for this experiment. […] Throughout this experiment, the mice were housed in filtered air laminar-flow cabinets and were manipulated following standard aseptic procedures.
# Human ovarian cancer (OVCAR) cells were provided by Dr Ho (Department of Pharmacy, National University of Singapore). OVCAR cells were grown in RPMI-1640 medium with 10% foetal bovine serum and 5 mM L-glutamine.
# A suspension of OVCAR cells (10^7 cells) were injected subcutaneously (s.c.) in the flank of each animal (0.1 ml per mice). When the volume of the tumour reached approximately 50-100 mm^3, the mice were randomly divided into 2 groups, the test group and the control group, comprising 6 mice in each group.
# The compound was given subcutaneously to mice in amounts of 0.1 ml/20 g three times every two days in the first week. The dose applied was at the level of the MTD, i.e. 0.14 mg Bi/kg mouse. […]
# In xenografts transplanted subcutaneously, tumour growth was monitored and the volume of the tumour was determined by measuring its diameter with a vernier calliper every 2-4 days. The Relative Tumour Volume (RTV=tumour volume on day×/tumour volume on day 1) was calculated using the formula width^2×length×0.52.
# [2] = i.p. in DMSO, 14 days observation
substance,measurement,setting,value
"bismuth (III) tris(N,N-diethyldithiocarbamate) [Bi(S2CNEt2)3]",MTD,BALB/c mice; MTD = 90% survival of mice,0.14 mg Bi/kg mouse
same,LD10,BALB/c mice; [2],0.14 mg/kg
same,LD50,BALB/c mice; [2],3.57 mg/kg
same,LD90,BALB/c mice; [2],7 mg/kg
same,anti-tumour activity,[1],significant anti-tumour activity
